Entries after “also recorded” stand apart in the source; their conditions may differ.
Key:
[1] = Hydrodynamic radius and size distribution of micelles by dynamic light scattering (DLS); assay type: physicochemical
Description: A method of measuring the radius of a micelle is not specifically limited and may be any method generally known in the art. For example, the radius may be measured by a dynamic light scattering (DLS) experiment.
In particular, critical micellar concentrations (CMCs) were measured using hydrophobic fluorescence staining and diphenylhexatriene (DPH), and hydrodynamic radii (Rh) of micelles formed of each material were measured by a dynamic light scattering (DLS) experiment. Measured results are compared to values of DDM as an existing amphipathic molecule (detergent).
Meanwhile, size distributions of the micelles formed of TDTs and NDTs were measured using DLS. Results are illustrated in FIG. 5. TDTs or NDTs were respectively used in an amount of 0.5% by weight. As a result, micelles of TDTs or NDTs were measured as forming a single community.

[2] = target: T1, melibiose permease (MelB), MelBSt (Salmonella typhimurium, UniProt P30878); experiment: MelB extraction efficiency and stability by SDS-PAGE and western immunoblotting; conditions: 1.5% by weight, 55° C., 90 minutes
T1 construct: made in house; host or cells: 'Salmonella typhimurium DW2 cell (melB and lacZY)', plasmid pK95AHB/WT MelBSt/CH10
T1 sequence (P30878 whole entry): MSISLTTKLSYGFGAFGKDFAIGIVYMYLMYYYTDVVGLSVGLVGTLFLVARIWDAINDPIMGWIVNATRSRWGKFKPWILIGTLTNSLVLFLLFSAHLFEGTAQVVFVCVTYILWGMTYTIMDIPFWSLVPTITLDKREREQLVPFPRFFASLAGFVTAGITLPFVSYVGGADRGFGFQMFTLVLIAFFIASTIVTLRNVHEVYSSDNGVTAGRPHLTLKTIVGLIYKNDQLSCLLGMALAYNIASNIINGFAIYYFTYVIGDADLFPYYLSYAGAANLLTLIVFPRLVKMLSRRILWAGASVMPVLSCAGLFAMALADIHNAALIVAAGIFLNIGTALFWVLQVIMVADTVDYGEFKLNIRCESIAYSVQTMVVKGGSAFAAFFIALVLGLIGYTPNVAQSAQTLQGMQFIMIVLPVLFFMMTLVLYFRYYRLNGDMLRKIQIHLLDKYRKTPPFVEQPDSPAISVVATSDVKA
Description: Experiments to measure the extraction efficiency and structural stability of a Salmonella typhimurium melibiose permease (MelB) protein by TDTs or NDTs were conducted. The MelB protein was extracted using TDTs, NDTs, or DDM and then the amounts and structures of extracted proteins were quantitatively analyzed by SDS-PAGE and western immunoblotting. The concentrations of the used amphipathic molecules were 1.5% by weight. Protein extraction was carried out at four temperatures (0, 45, 55 or 65° C.) for 90 minutes to simultaneously evaluate the protein extraction efficiency and stabilization ability of the amphipathic molecules.
In particular, in accordance with a method disclosed in a paper (P. S. Chae, et al., Chemistry. 2013, 19, 15645-15651) published by the present inventors, a protein (MelBSt) was produced using a pK95AHB/WT MelBSt/CH10 plasmid and a Salmonella typhimurium DW2 cell (melB and lacZY) to encode wild-type MelB having a 10-His tag at a C-terminal. In accordance with a method disclosed in a paper (Nat. Commun. 2014, 5, 3009) published by A. S. Ethayathulla, et al., cell proliferation and membrane preparation was carried out. Protein analysis was performed using a Micro BCA kit (Thermo Scientific, Rockford, Ill.). So as to measure the solubilization/stability of MelBSt, a membrane sample including MelBSt (final protein concentration of 10 mg/mL) was mixed with a solubilization buffer (20 mM sodium phosphate, pH 7.5, 200 mM NaCl, 10% glycerol, and 20 mM melibiose) and 1.5% (w/v) DDM, TDTs or NDTs. An extracted product was incubated at four temperatures (0, 45, 55 and 65° C.) for 90 minutes. Ultracentrifugation was carried out for 45 minutes at 4° C. and 355,590 g by means of a Beckman Optima™ MAX ultracentrifuge and a TLA-100 rotor. Subsequently, 20 μg of a protein was separated by SDS-16% PAGE and then subjected to immunoblotting with a Penta-His-HRP antibody (Qiagen, Germantown, Md.).

[3] = target: T2, uric acid-xanthine/H+ symporter (UapA) (Emericella nidulans, UniProt Q07307, G411V); experiment: UapA structural stability by CPM assay; set-up: species or system Aspergillus nidulans; conditions: 40° C.
T2 construct: GFP; made in house; host or cells: Saccharomyces cerevisiae FGY217
T2 sequence (Q07307 12-574 G411V): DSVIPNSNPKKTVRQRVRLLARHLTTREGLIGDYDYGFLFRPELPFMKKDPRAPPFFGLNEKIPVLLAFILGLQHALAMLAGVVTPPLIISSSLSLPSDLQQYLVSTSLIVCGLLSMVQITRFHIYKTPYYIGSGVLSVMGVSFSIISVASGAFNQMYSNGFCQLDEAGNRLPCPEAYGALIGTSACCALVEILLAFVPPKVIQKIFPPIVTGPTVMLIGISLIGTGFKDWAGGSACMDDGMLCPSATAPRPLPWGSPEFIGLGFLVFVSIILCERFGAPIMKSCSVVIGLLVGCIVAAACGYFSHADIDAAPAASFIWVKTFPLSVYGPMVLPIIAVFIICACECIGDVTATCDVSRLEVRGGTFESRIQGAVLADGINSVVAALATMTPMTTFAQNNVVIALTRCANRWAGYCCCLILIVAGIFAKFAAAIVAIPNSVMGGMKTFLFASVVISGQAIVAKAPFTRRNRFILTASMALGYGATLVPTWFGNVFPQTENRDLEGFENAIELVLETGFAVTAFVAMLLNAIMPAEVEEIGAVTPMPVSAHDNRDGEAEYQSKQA
Description: Experiments to measure the structural stability of a uric acid-xanthine/H+ symporter (UapA) due to TDTs or NDTs in an aqueous solution were conducted. The structural stability of UapA was measured using CPM assay, and the concentrations of TDTs, NDTs, and DDM concentration were CMC+0.04% by weight.
In particular, UapA protein is a uric acid-xanthine/H+ symporter in Aspergillus nidulans). The stability of the protein was measured using N-[4-(7-Diethylamino-4-methyl-3-coumarinyl)phenyl]maleimide (CPM), as a sulfhydryl-specific fluorophore, by means of a fluorescence spectrophotometer. A free sulfhydryl group of a cysteine residue is present within the center of the protein but may be present near a solvent due to unfolding of the protein. CPM becomes fluorescent by reaction with free thiol and, accordingly, functions as a sensor of unfolding. […] The reaction was monitored at 40° C. for 120 minutes by means of a microplate spectrofluorometer. So as to calculate a ratio of folded proteins relative to remaining proteins after being maintained at 40° C. for […], relative maximum fluorescence was used. […]

CCCCCCCCCCCCOC1OC(CO)C(OC2OC(CO)C(O)C(O)C2O)C(O)C1O [DDM, n-dodecyl-β-D-maltopyranoside, reference compound]
Rh (hydrodynamic radius of micelles) [1]: 3.4 ± 0.0 nm | MelB dissolved / solubilization ability [2]: hardly detected

CCCCCCCCCCCC(CCCCCCCCCCC)COCC(CO[C@@H]1OC(CO)[C@@H](O)C(O)C1O)(CO[C@@H]1OC(CO)[C@@H](O)C(O)C1O)CO[C@@H]1OC(CO)[C@@H](O)C(O)C1O (stereo partly drawn) [NDT-C11]
Rh (hydrodynamic radius of micelles) [1]: 3.5 ± 0.0 nm | UapA protein structural stability (amount of folded protein) ([3]; CMC+0.04% by weight): most excellent | UapA protein structural stability (amount of folded protein) ([3]; CMC+0.2% by weight): most excellent; also recorded: superior to those of MNG-3 | MelB dissolved / solubilization ability [2]: most excellent

From US10781229B2, “Tris- or neopentyl glycol-based amphiphiles and uses thereof” (Industry-University Cooperation Foundation Hanyang …, priority 2015, dated 2020)
